According to US20040072315A1, “Integrin-binding chimeras” (priority 2003, published 2004):
Where a SMILES comes first, the peptide text is derived from it. Bridges are numbered along the chain shown (N, C = ends). [ ]: non-standard residue; d: D form. hArg = N=C(N)NCCCC[C@H](N)C(=O)O; Mpa = O=C(O)CCS

B1: ND9-M3: cleaved ND9 with a fragment of NAP5 linked to dendroaspin, SEQ ID NO:30 (protein)
chain: RSRGCLLLPACVCKDGFYRDTVIGDCVREEECDQHEIIHVGGGGPGPGGGPGGRICYNHLGTKPPTTETCQEDSCYKNIWTFDNIIRRGCGCFTARGDMPGPYCCESDNCNL
modifications: Descriotion of Artificial Sequence: protein fragment ND9-F3
B2: NAP5: anticoagulant protein of hookworm Ancylostoma caninum, SEQ ID NO:28 (protein)
chain: KAYPECGENEWLDDCGTQKPCEAKCNEEPPEEEDPICRSRGCLLLPACVCKDGFYRDTVIGDCVREEECDQHEIIH
modifications: Description of Artificial Sequence: NAP portion of ND9

What was measured:
factor Xa [1] = assay: single-stage chromogenic assay of factor Xa inhibition (S-2765); format: biochemical; details: chromogenic substrate S-2765, 30 min preincubation; for IC50: read-out: Anti-Xa
Procedure: A single-stage chromogenic assay of factor Xa inhibition was used to determine this recombinant molecule. Clotting factor Xa was diluted to […] in 10 mM Hepes (pH 7.5) containing 0.1% bovine serum albumin and 150 mM NaCl (HBSA). Fifty microliters of sample (diluted at vary concentrations into HSBA) were incubated for 30 min at room temperature with 100 μl of factor Xa in a 96-well microtiter plate. Fifty microliters of 1 mM S-2765, a chromogenic substrate for factor Xa, was then added, and the initial rate (mOD per min) of substrate hydrolysis over 5 min was measured at 405/650 nm by using a automated plate reader.

factor Xa [2] = biological target: factor Xa (Homo sapiens, UniProt P00742); details: slow, tight-binding inhibitor; cited from earlier work
factor Xa (Homo sapiens, UniProt P00742), sequence (P00742 235-488 limits assumed): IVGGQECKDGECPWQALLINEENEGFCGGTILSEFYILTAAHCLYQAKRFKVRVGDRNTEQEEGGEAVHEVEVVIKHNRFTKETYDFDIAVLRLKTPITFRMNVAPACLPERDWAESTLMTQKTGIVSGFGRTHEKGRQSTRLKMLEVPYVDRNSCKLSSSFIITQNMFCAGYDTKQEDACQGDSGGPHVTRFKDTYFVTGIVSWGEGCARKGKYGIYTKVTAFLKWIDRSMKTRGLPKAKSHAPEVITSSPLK
factor Xa (Homo sapiens, UniProt P00742), sequence (P00742 41-179 partner limits assumed): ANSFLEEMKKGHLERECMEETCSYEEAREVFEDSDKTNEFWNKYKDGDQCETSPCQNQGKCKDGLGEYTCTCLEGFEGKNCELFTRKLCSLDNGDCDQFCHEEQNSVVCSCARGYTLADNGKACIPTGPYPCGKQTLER

[3] = system: factor VIIa, kallikrein, trypsin, chymotrypsin, thrombin, urokinase, plasmin, tissue plasminogen activator, elastase, Staphylococcus aureus V8 protease; details: 300-fold molar excess; cited from earlier work
[4] = biological target: integrin αIIbβ3 (glycoprotein GP IIb/IIIa) on human platelets (human) (UniProt P08514); assay: cell-based or functional assay
[5] = system: platelets in PRP from citrated human blood; assay: ADP-induced platelet aggregation in PRP (light transmission); format: cell-based; details: 10 μM ADP; for IC50: molar value (MW of Repro assumed 42 Kd, Integrilin 720d), read-out: Inhibition of ADP-induced platelet aggregation
Procedure: Platelet aggregation was measured by the increase in light transmission as described previously. Briefly, PRP was prepared from citrated human blood, obtained from healthy individuals, by centrifugation at 200×g for 15 mins. Platelet aggregation was induced with 10 μM ADP and measured using a Payton Dual-Aggregometer linked to a chart recorder.
The efficacy of wild-type and five variants of dendroaspin was assessed using ADP-induced platelet aggregation in PRP. The percentage of inhibition of platelet aggregation by these mutant dendroaspins was compared with wild-type dendroaspin and the inhibition of platelet aggregation expressed as IC50 values.

platelets = assay: collagen-induced platelet aggregation; format: cell-based, human; details: for IC50: molar value (MW of Repro assumed 42 Kd, Integrilin 720d), read-out: Inhibition of collagen-induced platelet aggregation
Procedure: Platelet aggregation was measured by the increase in light transmission as described previously. Briefly, PRP was prepared from citrated human blood, obtained from healthy individuals, by centrifugation at 200×g for 15 mins. […]

[6] = system: 11 other serine proteases; details: only protease inhibited among 11 other serine proteases; cited from earlier work

Row | Molecule | Anti-Xa (factor Xa [1]) [µg/mL] | IC50 (factor Xa [1]) [nM] | Inhibition of ADP-induced platelet aggregation [5] [µg/mL] | IC50 [5] [nM] | Inhibition of collagen-induced platelet aggregation (platelets) [µg/mL] | IC50 (platelets) [nM] | further results
1 | TAP: tick anticoagulant peptide from Ornithodoros moubata, factor Xa inhibitor (YNRLCIKPRDWIDECDSNEGGERAYFRNGKGGCDSFWICPEDHTGADYYSSYRDCFNACI) | 0.02 to 0.07 | 2.8 to 10 |  |  |  |  | Ki (factor Xa [2]): 0.588 nM; effect on other proteases [3]: no effect
2 | Dendroaspin (ligand) |  |  |  |  |  |  | Inhibition of ADP-induced platelet aggregation [4]: 1.2 µg/mL
3 | Repro: also known as 7E3, a known inhibitor of integrin-mediated binding; MW assumed 42 Kd |  |  | 3.2 | 76 | 3.80 | 90 | 
4 | N=C(N)NCCCC[C@@H]1NC(=O)CCSSC[C@@H](C(N)=O)NC(=O)[C@@H]2CCCN2C(=O)[C@H](Cc2c[nH]c3ccccc23)NC(=O)[C@H](CC(=O)O)NC(=O)CNC1=O [Integrilin] ([Mpa][hArg]GDWPC-NH2; disulfide 1-7) |  |  | 0.2 | 277 | 0.23 | 319 | 
5 | B1 | 2.3 | 141 | 4.2 | 260 | 3.90 | 240 | 
6 | B2 |  |  |  |  |  |  | inhibition of Factor Xa [6]: 50%
